# Earlier results, collected in patent US5229370A, “Water soluble branched beta cyclodextrin steroid complex” (priority 1992, dated 1993).
# Conditions: under ambient conditions; reported
row,SMILES,solubility of steroid in water [µg/mL]
1,CC(C)CCC[C@@H](C)[C@H]1CC[C@H]2[C@@H]3CC=C4C[C@@H](O)CC[C@]4(C)[C@H]3CC[C@]12C [cholesterol],2
2,CC(=O)[C@H]1CC[C@H]2[C@@H]3CCC4=CC(=O)CC[C@]4(C)[C@H]3CC[C@]12C [progesterone],16
3,C[C@]12CC[C@H]3[C@@H](CCC4=CC(=O)CC[C@@]43C)[C@@H]1CC[C@@H]2O [testosterone],40
